# Measured values from ChEMBL document CHEMBL5634174, “Biological evaluation of sulfonate and sulfate analogues of lithocholic acid: A bioisosterism-guided approach towards the discovery of potential sialyltransferase inhibitors for antimetastatic study” (Bioorg Med Chem Lett, 2024).
# The source made the active and inactive calls. The rule behind the calls is not given here.
# Experiments:
# [1] = target: T1, Beta-galactoside alpha-2,6-sialyltransferase 1 (Homo sapiens) (UniProt P15907); assay: Inhibition of recombinant human N-terminal His tagged ST6GAL1 (44 to 406 residues) at 50 uM by UPLC-based assay relative to control
# T1 sequence (whole entry): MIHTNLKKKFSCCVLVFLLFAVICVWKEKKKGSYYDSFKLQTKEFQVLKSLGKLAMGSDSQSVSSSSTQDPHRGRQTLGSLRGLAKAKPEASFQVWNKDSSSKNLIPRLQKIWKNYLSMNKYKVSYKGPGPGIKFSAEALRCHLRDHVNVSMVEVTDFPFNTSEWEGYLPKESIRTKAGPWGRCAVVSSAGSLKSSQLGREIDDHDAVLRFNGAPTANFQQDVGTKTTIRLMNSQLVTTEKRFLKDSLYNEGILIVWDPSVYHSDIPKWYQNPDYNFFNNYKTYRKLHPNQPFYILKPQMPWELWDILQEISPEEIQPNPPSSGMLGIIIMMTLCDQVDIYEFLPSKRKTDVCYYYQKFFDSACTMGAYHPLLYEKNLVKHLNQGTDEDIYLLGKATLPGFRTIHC
# [2] = target: T2, Sialyltransferase ST3Gal-I (Rattus norvegicus) (UniProt Q6H8N0); assay: Inhibition of rat ST3GAL1 at 500 uM by UPLC-based assay relative to control
# T2 sequence (whole entry): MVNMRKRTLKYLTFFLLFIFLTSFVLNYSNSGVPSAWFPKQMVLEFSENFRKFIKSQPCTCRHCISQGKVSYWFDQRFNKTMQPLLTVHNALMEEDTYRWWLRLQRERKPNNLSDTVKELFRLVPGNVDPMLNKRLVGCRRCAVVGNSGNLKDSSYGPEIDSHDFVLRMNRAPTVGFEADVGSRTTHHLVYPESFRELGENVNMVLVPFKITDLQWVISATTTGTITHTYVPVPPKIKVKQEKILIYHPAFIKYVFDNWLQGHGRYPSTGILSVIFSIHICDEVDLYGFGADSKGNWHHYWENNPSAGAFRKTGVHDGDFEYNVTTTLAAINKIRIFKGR
# [3] = Selectivity index, ratio of IC50 for inhibition of rat ST3GAL1 to IC50 for inhibition of human ST6GAL1
# MDA-MB-231 [4] = assay: Inhibition of cell invasion in human MDA-MB-231 cells at 60 uM; type: functional, cell-based
# MDA-MB-231 [5] = assay: Inhibition of cell invasion in human MDA-MB-231 cells assessed as reduction in cell adhesion to collagen IV at 60 uM incubated for 48 hrs; type: functional, cell-based
# MDA-MB-231 [6] = assay: Inhibition of cell invasion in human MDA-MB-231 cells assessed as reduction in cell adhesion at 60 uM after 48 hrs; type: functional, cell-based
# [7] = target: Integrin alpha-V (Homo sapiens) (UniProt P06756); assay: Inhibition of integrin alpha-v in human MDA-MB-231 cells assessed as decrease in sialylation level incubated for 48 hrs by Western blot analysis; type: cell-based; conditions: dose 20-80 µM
# [8] = target: Integrin alpha-5 (Homo sapiens) (UniProt P08648); assay: Inhibition of integrin alpha-5 in human MDA-MB-231 cells assessed as decrease in sialylation level incubated for 48 hrs by Western blot analysis; type: cell-based; conditions: dose 20-80 µM
# [9] = target: Integrin beta-4 (Homo sapiens) (UniProt P16144); assay: Inhibition of integrin beta-4 in human MDA-MB-231 cells assessed as decrease in sialylation level incubated for 48 hrs by Western blot analysis; type: cell-based; conditions: dose 20-80 µM
# [10] = target: Focal adhesion kinase 1 (Homo sapiens) (UniProt Q05397); assay: Inhibition of FAK phosphorylation at Y397 residue in human MDA-MB-231 cells at 80 uM incubated for 2 hrs by Western blot analysis; type: cell-based
# [11] = target: Focal adhesion kinase 1 (Homo sapiens) (UniProt Q05397); assay: Inhibition of FAK phosphorylation at Y576/577 residue in human MDA-MB-231 cells at 80 uM incubated for 2 hrs by Western blot analysis; type: cell-based
# [12] = target: Focal adhesion kinase 1 (Homo sapiens) (UniProt Q05397); assay: Inhibition of FAK phosphorylation at Y397 residue in human MDA-MB-231 cells incubated for 2 hrs by Western blot analysis; type: cell-based; conditions: dose 20-80 µM
# [13] = target: Focal adhesion kinase 1 (Homo sapiens) (UniProt Q05397); assay: Inhibition of FAK phosphorylation at Y576/577 residue in human MDA-MB-231 cells incubated for 2 hrs by Western blot analysis; type: cell-based; conditions: dose 20-80 µM
# MDA-MB-231 [14] = assay: Effect on total paxillin expression level in human MDA-MB-231 cells at 20 to 80 uM incubated for 2 hrs by Western blot analysis; type: functional, cell-based; conditions: dose 20-80 µM
# Sequence of Focal adhesion kinase 1 (Homo sapiens) (Q05397 2-1052 limits assumed): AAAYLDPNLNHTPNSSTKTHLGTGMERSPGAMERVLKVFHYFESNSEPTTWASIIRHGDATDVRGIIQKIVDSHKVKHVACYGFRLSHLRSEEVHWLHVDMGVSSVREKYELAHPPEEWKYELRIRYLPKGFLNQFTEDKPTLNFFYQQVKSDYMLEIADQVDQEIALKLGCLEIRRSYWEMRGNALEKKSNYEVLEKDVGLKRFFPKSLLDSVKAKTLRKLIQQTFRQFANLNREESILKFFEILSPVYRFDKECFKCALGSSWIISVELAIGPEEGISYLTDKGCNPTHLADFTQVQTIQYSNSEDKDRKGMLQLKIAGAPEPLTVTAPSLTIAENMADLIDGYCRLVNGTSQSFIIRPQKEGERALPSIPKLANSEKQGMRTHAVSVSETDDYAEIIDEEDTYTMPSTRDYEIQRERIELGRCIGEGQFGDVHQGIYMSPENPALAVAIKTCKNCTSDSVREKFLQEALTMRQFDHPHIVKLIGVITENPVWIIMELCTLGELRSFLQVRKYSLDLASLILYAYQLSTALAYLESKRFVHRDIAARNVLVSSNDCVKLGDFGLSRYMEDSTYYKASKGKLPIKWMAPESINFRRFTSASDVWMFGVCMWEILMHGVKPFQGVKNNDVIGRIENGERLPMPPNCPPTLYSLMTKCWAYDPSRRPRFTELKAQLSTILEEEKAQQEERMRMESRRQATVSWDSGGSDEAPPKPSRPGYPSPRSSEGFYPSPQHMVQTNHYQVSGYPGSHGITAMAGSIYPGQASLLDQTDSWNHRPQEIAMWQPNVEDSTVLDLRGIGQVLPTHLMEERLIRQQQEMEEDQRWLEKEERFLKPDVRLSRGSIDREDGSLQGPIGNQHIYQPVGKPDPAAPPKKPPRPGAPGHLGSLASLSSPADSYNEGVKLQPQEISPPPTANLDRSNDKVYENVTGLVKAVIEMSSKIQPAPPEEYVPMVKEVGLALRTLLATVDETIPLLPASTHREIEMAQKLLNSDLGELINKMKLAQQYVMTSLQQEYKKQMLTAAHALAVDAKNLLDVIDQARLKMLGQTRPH
# Sequence of Integrin beta-4 (Homo sapiens) (P16144 whole entry): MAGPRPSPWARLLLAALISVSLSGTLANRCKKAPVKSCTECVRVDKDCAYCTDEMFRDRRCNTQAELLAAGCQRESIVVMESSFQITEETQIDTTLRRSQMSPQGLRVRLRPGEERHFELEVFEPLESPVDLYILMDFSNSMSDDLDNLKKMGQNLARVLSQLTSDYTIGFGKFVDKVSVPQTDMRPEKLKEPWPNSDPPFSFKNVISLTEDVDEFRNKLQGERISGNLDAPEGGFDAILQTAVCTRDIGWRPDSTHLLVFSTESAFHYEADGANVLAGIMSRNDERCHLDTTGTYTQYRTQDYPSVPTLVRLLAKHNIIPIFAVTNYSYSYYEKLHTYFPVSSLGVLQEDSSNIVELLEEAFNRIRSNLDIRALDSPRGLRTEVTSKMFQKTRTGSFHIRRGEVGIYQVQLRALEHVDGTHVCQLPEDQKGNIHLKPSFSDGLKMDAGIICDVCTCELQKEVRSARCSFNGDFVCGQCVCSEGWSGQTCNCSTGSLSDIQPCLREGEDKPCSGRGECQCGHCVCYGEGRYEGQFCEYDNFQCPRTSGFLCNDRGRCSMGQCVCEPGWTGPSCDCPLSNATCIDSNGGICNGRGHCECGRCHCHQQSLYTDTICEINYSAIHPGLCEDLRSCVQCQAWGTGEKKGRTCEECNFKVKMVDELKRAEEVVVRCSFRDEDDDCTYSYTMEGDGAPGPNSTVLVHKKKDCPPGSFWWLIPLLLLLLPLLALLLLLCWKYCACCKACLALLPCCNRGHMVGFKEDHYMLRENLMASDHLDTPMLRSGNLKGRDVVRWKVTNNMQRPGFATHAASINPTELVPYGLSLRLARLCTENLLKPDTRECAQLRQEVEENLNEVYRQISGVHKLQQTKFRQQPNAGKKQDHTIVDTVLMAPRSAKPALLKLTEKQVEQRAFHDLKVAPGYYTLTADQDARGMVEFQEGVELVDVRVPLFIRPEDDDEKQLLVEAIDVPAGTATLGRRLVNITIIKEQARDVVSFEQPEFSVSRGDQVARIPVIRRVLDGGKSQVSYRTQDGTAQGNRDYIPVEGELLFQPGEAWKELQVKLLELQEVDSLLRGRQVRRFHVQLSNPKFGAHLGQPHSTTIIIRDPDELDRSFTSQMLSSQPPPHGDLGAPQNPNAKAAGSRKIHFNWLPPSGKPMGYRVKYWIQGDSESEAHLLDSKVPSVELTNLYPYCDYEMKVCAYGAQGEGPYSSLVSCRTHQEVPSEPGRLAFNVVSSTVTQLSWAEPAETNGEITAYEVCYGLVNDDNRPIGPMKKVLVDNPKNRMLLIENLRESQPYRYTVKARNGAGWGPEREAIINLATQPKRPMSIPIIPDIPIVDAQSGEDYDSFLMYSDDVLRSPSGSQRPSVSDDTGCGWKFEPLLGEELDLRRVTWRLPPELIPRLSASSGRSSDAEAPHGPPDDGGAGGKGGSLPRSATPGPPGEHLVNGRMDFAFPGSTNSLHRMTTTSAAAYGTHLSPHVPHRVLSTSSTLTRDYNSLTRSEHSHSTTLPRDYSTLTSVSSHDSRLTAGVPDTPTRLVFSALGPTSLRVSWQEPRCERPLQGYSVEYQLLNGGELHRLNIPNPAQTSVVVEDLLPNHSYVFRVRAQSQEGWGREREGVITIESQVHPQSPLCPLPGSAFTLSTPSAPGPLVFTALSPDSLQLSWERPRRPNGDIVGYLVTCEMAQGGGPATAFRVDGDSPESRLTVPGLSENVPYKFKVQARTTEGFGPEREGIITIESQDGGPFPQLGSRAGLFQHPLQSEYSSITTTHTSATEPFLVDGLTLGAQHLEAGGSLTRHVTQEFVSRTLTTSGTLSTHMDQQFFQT
# Sequence of Integrin alpha-V (Homo sapiens) (P06756 31-889 limits assumed): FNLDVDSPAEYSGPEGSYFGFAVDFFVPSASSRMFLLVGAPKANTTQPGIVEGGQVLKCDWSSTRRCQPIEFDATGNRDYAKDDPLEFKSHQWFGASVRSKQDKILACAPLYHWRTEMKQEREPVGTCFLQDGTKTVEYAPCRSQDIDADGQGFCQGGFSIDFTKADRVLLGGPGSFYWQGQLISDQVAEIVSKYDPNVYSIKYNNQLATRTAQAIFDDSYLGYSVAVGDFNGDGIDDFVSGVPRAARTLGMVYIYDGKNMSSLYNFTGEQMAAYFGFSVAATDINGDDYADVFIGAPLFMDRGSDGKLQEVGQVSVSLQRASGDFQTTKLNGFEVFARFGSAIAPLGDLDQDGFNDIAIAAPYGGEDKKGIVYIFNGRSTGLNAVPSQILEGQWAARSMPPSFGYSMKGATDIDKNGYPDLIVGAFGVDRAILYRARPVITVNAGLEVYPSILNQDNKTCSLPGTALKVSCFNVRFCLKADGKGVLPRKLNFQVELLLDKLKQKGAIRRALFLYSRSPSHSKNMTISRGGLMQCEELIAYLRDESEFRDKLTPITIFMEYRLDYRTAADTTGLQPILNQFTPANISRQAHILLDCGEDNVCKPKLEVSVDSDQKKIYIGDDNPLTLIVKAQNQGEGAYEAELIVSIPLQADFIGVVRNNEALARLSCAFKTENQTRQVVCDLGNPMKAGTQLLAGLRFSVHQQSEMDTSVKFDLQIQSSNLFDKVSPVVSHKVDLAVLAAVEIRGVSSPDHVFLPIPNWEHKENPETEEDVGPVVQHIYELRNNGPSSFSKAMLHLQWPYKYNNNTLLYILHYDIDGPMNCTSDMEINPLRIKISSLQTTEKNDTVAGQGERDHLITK
# Sequence of Integrin alpha-V (Homo sapiens) (P06756 891-1048 limits assumed): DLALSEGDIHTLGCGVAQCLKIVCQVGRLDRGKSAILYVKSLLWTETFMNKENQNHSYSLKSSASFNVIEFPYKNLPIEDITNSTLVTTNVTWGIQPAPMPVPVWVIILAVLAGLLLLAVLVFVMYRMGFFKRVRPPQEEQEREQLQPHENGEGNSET
# Sequence of Integrin alpha-5 (Homo sapiens) (P08648 42-894 limits assumed): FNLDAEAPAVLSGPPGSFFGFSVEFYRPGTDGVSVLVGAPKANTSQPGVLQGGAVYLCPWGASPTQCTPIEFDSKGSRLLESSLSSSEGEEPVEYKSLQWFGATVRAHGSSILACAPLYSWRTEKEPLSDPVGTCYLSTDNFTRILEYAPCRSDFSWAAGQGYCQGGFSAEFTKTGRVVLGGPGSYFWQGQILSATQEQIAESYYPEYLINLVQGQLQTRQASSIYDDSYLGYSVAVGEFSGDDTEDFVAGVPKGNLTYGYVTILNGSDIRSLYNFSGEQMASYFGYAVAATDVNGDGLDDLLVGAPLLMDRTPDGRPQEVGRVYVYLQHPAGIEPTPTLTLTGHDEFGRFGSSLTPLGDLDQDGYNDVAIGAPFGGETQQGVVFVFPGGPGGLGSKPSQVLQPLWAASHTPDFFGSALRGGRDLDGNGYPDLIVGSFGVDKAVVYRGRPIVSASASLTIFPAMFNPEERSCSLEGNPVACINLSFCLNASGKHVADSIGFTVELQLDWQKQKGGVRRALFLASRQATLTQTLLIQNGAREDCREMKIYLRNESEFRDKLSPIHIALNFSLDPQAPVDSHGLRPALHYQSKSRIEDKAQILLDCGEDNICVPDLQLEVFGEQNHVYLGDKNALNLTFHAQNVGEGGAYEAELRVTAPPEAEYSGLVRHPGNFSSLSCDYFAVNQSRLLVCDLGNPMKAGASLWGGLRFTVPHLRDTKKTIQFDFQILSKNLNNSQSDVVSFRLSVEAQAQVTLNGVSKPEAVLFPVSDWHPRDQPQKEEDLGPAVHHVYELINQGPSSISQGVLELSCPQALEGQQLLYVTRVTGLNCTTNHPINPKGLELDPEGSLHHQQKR
# Sequence of Integrin alpha-5 (Homo sapiens) (P08648 895-1049 limits assumed): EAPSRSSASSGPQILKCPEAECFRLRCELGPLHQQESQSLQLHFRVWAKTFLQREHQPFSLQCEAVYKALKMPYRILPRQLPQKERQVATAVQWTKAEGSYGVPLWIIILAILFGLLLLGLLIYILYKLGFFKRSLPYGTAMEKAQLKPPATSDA
smiles,measurement,setting,value
C[C@H](CCCOS(=O)(=O)O)[C@H]1CC[C@H]2[C@@H]3CC[C@@H]4C[C@H](O)CC[C@]4(C)[C@H]3CC[C@]12C,inhibition,[1],100%
same,inhibition,[2],3%
same,Ratio IC50,[3],> 60
same,inhibition,MDA-MB-231 [4],Active
same,inhibition,MDA-MB-231 [5],Active
same,inhibition,MDA-MB-231 [6],inactive
same,Activity,[7],Dose-Dependent Effect
same,Activity,[8],Dose-Dependent Effect
same,Activity,[9],Dose-Dependent Effect
same,inhibition,[10],Active
same,inhibition,[11],Active
same,inhibition,[12],Dose-Dependent Effect
same,inhibition,[13],Dose-Dependent Effect
same,Activity,MDA-MB-231 [14],inactive
